“And” between values parts separate entries of the source, which are not always exact repeats. Equal entries are not always repeated. Toxic doses and inconclusive results are not listed. Rule for the calls: active = survival T/C of 150% or more; inactive = T/C below 125% in these data.
Test system: P388 leukemia ip, CD2F1 mice, survival T/C
Test: NCI In Vivo Anticancer Drug Screen. Data for tumor model P388 Leukemia (intraperitoneal) in CD2F1 (CDF1) mice
Conditions: endpoint: median survival time, higher = longer survival
In short: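 Mice carrying the transplanted tumor received test compound or vehicle. Survival was recorded in each group, and the value is the treated-group measurement divided by that of the vehicle-treated control group.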

[1] = dose: 60.0 mg/kg/injection, schedule: Q01DX005 (ip), vehicle: saline with Tween-80
[2] = dose: 120.0 mg/kg/injection, schedule: Q01DX005 (ip), vehicle: saline with Tween-80
[3] = dose: 50.0 mg/kg/injection, schedule: Q01DX009 (ip), vehicle: saline with Tween-80
[4] = dose: 100.0 mg/kg/injection, schedule: Q01DX009 (ip), vehicle: saline with Tween-80
[5] = dose: 100.0 mg/kg/injection, schedule: Q04DX002 (ip), vehicle: saline
[6] = dose: 200.0 mg/kg/injection, schedule: Q04DX002 (ip), vehicle: saline

Measured: T/C

CCN(CC)c1nc(Cl)nc(NC(C)C)n1
inactive: dose: 100.0 mg/kg/injection, schedule: Q04DX003 (ip), vehicle: saline with Tween-80 100 % of control | dose: 200.0 mg/kg/injection, schedule: Q04DX003 (ip), vehicle: saline with Tween-80 95 % of control

COCCNCCN1CCN(CCCN2c3ccccc3Sc3ccc(C(F)(F)F)cc32)CC1
inactive: dose: 1.56 mg/kg/injection, schedule: Q01DX009 (ip), vehicle: saline 104 % of control | dose: 3.12 mg/kg/injection, schedule: Q01DX009 (ip), vehicle: saline 100 % of control | dose: 6.25 mg/kg/injection, schedule: Q01DX009 (ip), vehicle: saline 107 % of control

CC1=C(Sc2ccc(Br)cc2)C(N)Nc2nc(N)nc(N)c21 (stereo unspecified)
inactive: [1] 89 % of control | [2] 89 % of control

O=C(O)CN(CCO)CCN(CC(=O)O)CC(=O)O
inactive: dose: 12.5 mg/kg/injection, schedule: Q01DX009 (ip), vehicle: saline 100 % of control | dose: 25.0 mg/kg/injection, schedule: Q01DX009 (ip), vehicle: saline with Tween-80 100 % of control | dose: 25.0 mg/kg/injection, schedule: Q01DX009 (ip), vehicle: saline 104 % of control | [3] 95 % of control | dose: 50.0 mg/kg/injection, schedule: Q01DX009 (ip), vehicle: saline 95 % of control | [4] 100 % of control | dose: 100.0 mg/kg/injection, schedule: Q01DX009 (ip), vehicle: saline 98 % of control

N#CSCc1ccc(CSC#N)c(Cl)c1
inactive: dose: 1.56 mg/kg/injection, schedule: Q04DX003 (ip), vehicle: saline sonified 100 % of control | dose: 2.08 mg/kg/injection, schedule: Q01DX009 (ip), vehicle: saline with Tween-80 109 % of control | dose: 3.13 mg/kg/injection, schedule: Q01DX009 (ip), vehicle: saline with Tween-80 100 % of control | dose: 3.13 mg/kg/injection, schedule: Q04DX003 (ip), vehicle: saline sonified 104 % of control | dose: 4.69 mg/kg/injection, schedule: Q01DX009 (ip), vehicle: saline with Tween-80 118 % of control | dose: 6.25 mg/kg/injection, schedule: Q04DX003 (ip), vehicle: saline sonified 109 % of control

O=P(Oc1ccccc1)(Oc1ccccc1)C(O)C(Cl)(Cl)Cl (stereo unspecified)
inactive: [3] 107 % of control | [4] 100 % of control and 117 % of control | dose: 200.0 mg/kg/injection, schedule: Q01DX009 (ip), vehicle: saline with Tween-80 103 % of control

C=C1CC[C@H]2C(C)=CC[C@@H]3[C@H](OC(=O)[C@H]3CN3CCN(c4ccc(C)c([N+](=O)[O-])c4)CC3)[C@@H]12
inactive: [5] 97 % of control | [6] 99 % of control | dose: 400.0 mg/kg/injection, schedule: Q04DX002 (ip), vehicle: saline 96 % of control

NC(Cc1cnc[nH]1)C(=O)NO (stereo unspecified)
inactive: dose: 100.0 mg/kg/injection, schedule: Q01DX001 (ip), vehicle: saline 94 % of control | dose: 200.0 mg/kg/injection, schedule: Q01DX001 (ip), vehicle: saline 102 % of control | dose: 400.0 mg/kg/injection, schedule: Q01DX001 (ip), vehicle: saline 94 % of control

N=C(N)SCC[n+]1cccc2cccc(O)c21
inactive: [5] 98 % of control | [6] 100 % of control

CN(C)c1ccc2c(c1)c1cc(N(C)C)ccc1n2Cc1ccccc1
inactive: [1] 102 % of control | [2] 94 % of control | dose: 240.0 mg/kg/injection, schedule: Q01DX005 (ip), vehicle: saline with Tween-80 98 % of control

CC(C)C(O)(C(=O)OCC1=CC[N+]2(C)CCC(O)C12)C(C)O (stereo unspecified)
inactive: dose: 25.0 mg/kg/injection, schedule: Q01DX005 (ip), vehicle: water 103 % of control | dose: 50.0 mg/kg/injection, schedule: Q01DX005 (ip), vehicle: water 108 % of control | dose: 100.0 mg/kg/injection, schedule: Q01DX005 (ip), vehicle: water 103 % of control | dose: 200.0 mg/kg/injection, schedule: Q01DX005 (ip), vehicle: water 100 % of control

NC(CCl)=NCC1C2CC3CC(C2)CC1C3 (stereo unspecified)
inactive: dose: 7.5 mg/kg/injection, schedule: Q01DX005 (ip), vehicle: saline with Tween-80 107 % of control and 116 % of control and 120 % of control | dose: 15.0 mg/kg/injection, schedule: Q01DX005 (ip), vehicle: saline with Tween-80 122 % of control | dose: 30.0 mg/kg/injection, schedule: Q01DX005 (ip), vehicle: saline with Tween-80 117 % of control

Reference: PubChem BioAssay AID330 (DTP/NCI, 2004)
